Assay results from patent US6670183B2, “88kDa tumorigenic growth factor and antagonists” (A & G Pharmaceutical, Inc., priority 1997, dated 2003).

What was measured:
[1] = test system: GP88 mRNA; assay: regulation of GP88 mRNA expression in MDA MB-453 cells; format: cell-based, human
[2] = test system: GP88; assay: regulation of GP88 expression in 1246, 1246-3A and PC cells, Northern and Western blot; format: cell-based, mouse; conditions: 1246 cells
Protocol: Fifteen or twenty micrograms of total RNA per sample were subjected to electrophoresis on a denaturing 1.2% agarose gel containing 0.22 M formaldehyde in 1×MOPS (10×MOPS: 0.2 M MOPS, 50 mM NaOAc 10 mM EDTA). RNA was blotted on nitrocellulose membrane (MSI Inc., Westboro, Mass.) by overnight capillary transfer in 10×SSC (20×SSC=3 M NaCl, 0.3 M Na Citrate pH 7.0). […] Results were quantitated by densitometric scanning. Ribosomal protein L32 mRNA was detected as internal standard for normalizing RNA loading.
Amounts of cell lysate and culture medium to be analyzed were normalized by cell number of 18×10^5 and 3×10^5 respectively. […] Proteins were electro transferred to immobilon membranes and GP88 detected using anti K19T antibody conjugated to horseradish peroxidase and detected by enhanced chemiluminescence (ECL).
GP88 expression was examined in 1246 cells in different culture conditions such as defined medium and serum containing medium. It was shown that the level of expression of GP88 mRNA (measured by Northern blot analysis) and protein (measured by Western blot analysis) in 1246 and in 1246-3A cells is inhibited when the cells are treated with 2% fetal bovine serum indicating the presence of circulating inhibitors of GP88 expression in fetal bovine serum (FIG. 1C). […]

insulin: hormone
GP88 mRNA expression [1]: stimulated

EGF: epidermal growth factor
GP88 mRNA expression [2]: stimulated
